In patent US8076285B2, “Lysobactin amides” (Aicuris GmbH & Co. KG, priority 2006, dated 2011) one finds ring closure, yield after HPLC data, which are given here for six compounds.

Like-named read-outs stand apart in the source and are kept apart here.

For the data set the following is noted: amide bond, 28-membered ring.

The compound `CC[C@H](C)[C@@H]1NC(=O)[C@@H](CCCN(C(=N)NC(=O)OCc2ccccc2)C(=O)OCc2ccccc2)NC(=O)[C@H](CC(C)C)NC(=O)[C@H]([C@H](O)C(C)C)NC(=O)[C@@H](NC(=O)[C@H](CC(C)(C)C)NC(=O)[C@@H](CC(C)(C)C)NC(=O)OCc2ccccc2)[C@@H](c2ccccc2)NC(=O)[C@H](CO)NC(=O)[C@H](CC(N)=O)NC(=O)CNC(=O)[C@H]([C@H](C)O)NC1=O` came in with a ring closure, yield after HPLC (from Z-dAla(3-tBu)-Ala(3-tBu)-(3R)3-amino-Phe(free 3-NH2)-(3R)3-OH-Leu-Leu-dArg(Z)2-Ile-aThr-Gly-Asn-Ser-OH, HATU/NMM, DMF, 1.1 mM, 25.0 °C) of 90.1%.

As to `CC[C@H](C)[C@@H]1NC(=O)[C@@H](CCCNC(=N)N)NC(=O)[C@H](CC(C)C)NC(=O)[C@H]([C@H](O)C(C)C)NC(=O)[C@@H](NC(=O)OCc2ccccc2)[C@@H](c2ccccc2)NC(=O)[C@H](CO)NC(=O)[C@H]([C@@H](C)O)NC(=O)CNC(=O)[C@H]([C@H](C)O)NC1=O`, where the note is “from Z-Phe((3R)-3-NH2)-Leu((3R)-3-OH)-Leu-dArg-Ile-aThr-Gly-Thr-Ser-OH?, HATU/NMM, DMF, 0.0 °C”, the ring closure, yield after HPLC came out at 65%. `CC[C@H](C)[C@@H]1NC(=O)[C@@H](CCCNC(=N)N)NC(=O)[C@H](CC(C)C)NC(=O)[C@H]([C@H](O)C(C)C)NC(=O)[C@@H](NC(=O)[C@H](CC(C)(C)C)NC(=O)[C@@H](CC(C)(C)C)NC(=O)OCc2ccccc2)[C@@H](c2ccccc2)NC(=O)[C@H](CO)NC(=O)[C@H](CC(N)=O)NC(=O)CNC(=O)[C@H]([C@H](C)O)NC1=O` gave a ring closure, yield after HPLC (from Z-dAla(3-tBu)-Ala(3-tBu)-(3R)3-amino-Phe(free 3-NH2)-(3R)3-OH-Leu-Leu-dArg-Ile-aThr-Gly-Asn-Ser-OH, HATU/NMM, DMF, 1.14 mM, 4.0 °C) of 80%. `CC[C@H](C)[C@@H]1NC(=O)[C@@H](CCCNC(=N)N)NC(=O)[C@H](CC(C)C)NC(=O)[C@H]([C@H](O)C(C)C)NC(=O)[C@@H](NC(=O)[C@H](CC(C)C)NC(=O)[C@@H](CC(C)C)NC(=O)OCc2ccccc2)[C@@H](c2ccccc2)NC(=O)[C@H](CO)NC(=O)[C@H](CC(N)=O)NC(=O)CNC(=O)[C@H]([C@@H](C)O)NC1=O` registered a ring closure, yield after HPLC (from Z-dLeu-Leu-(3R)3-amino-Phe(free 3-NH2)-(3R)3-OH-Leu-Leu-dArg-Ile-Thr-Gly-Asn-Ser-OH, HATU/NMM, DMF, 25.0 °C) of 88.3%.

In the case of `CC[C@H](C)[C@@H]1NC(=O)[C@@H](CCCNC(=O)OCc2ccccc2)NC(=O)[C@H](CC(C)C)NC(=O)[C@H]([C@H](O)C(C)C)NC(=O)[C@@H](NC(=O)[C@H](CC(C)(C)C)NC(=O)[C@@H](CC(C)(C)C)NC(=O)OCc2ccccc2)[C@@H](c2ccccc2)NC(=O)[C@H](CO)NC(=O)[C@H](CC(N)=O)NC(=O)CNC(=O)[C@H]([C@H](C)O)NC1=O`, the ring closure, yield after HPLC (from Z-dAla(3-tBu)-Ala(3-tBu)-(3R)3-amino-Phe(free 3-NH2)-(3R)3-OH-Leu-Leu-dOrn(Z)-Ile-aThr-Gly-Asn-Ser-OH, HATU/NMM, DMF, 4.0 °C) is 91.3%. Consider “N^2.1-(Benzyloxycarbonyl)-[(3R)-3-amino-L-alanyl)]-[(3R)-3-hydroxy-L-leucyl]-L-leucyl-D-arginyl-L-isoleucyl-L-allothreonyl-glycyl-[(3S)-3-hydroxy-L-asparaginyl]-L-serine C^1.9-N^3.1-lactam hydrochloride”, for which, where the note is “Et3N (Pfp ester), CHCl3, 0.11 mM, 3 steps”, the ring closure, yield after HPLC worked out at 15.9%.
